Experimental data: PubChem BioAssay (NCI)
Several values for one entry are separate records, joined by “and”; a condition that tells them apart may be missing. Equal entries are not always repeated.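 Five concentrations, 48 hours, 96-well plates. GI50: concentration for 50% inhibition of growth. TGI marks complete inhibition of growth.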

Legend:
Test in all cases: NCI anticancer screen, dose series, 48 h
ACHN renal = system: ACHN renal
CCRF-CEM leukemia = system: CCRF-CEM leukemia
HT29 colon = system: HT29 colon
LOX IMVI melanoma = system: LOX IMVI melanoma
OVCAR-4 ovarian = system: OVCAR-4 ovarian
SF-295 CNS = system: SF-295 CNS
SK-MEL-5 melanoma = system: SK-MEL-5 melanoma
HCC-2998 colon = system: HCC-2998 colon
DU-145 prostate = system: DU-145 prostate
MDA-MB-435 = system: MDA-MB-435

SMILES | GI50 (ACHN renal) | TGI (ACHN renal) | GI50 (CCRF-CEM leukemia) | TGI (CCRF-CEM leukemia) | GI50 (HT29 colon) | TGI (HT29 colon) | GI50 (LOX IMVI melanoma) | TGI (LOX IMVI melanoma) | GI50 (OVCAR-4 ovarian) | TGI (OVCAR-4 ovarian) | GI50 (SF-295 CNS) | TGI (SF-295 CNS) | GI50 (SK-MEL-5 melanoma) | TGI (SK-MEL-5 melanoma) | TGI (HCC-2998 colon) | GI50 (DU-145 prostate) | TGI (DU-145 prostate) | GI50 (HCC-2998 colon) | GI50 (MDA-MB-435) | TGI (MDA-MB-435)
C[C@@]12CC=C3c4nc(Nc5cccc(O)c5)sc4CC[C@]3(C)[C@H]1CC[C@]1(C)C(=O)CC[C@@H]21 | 2.27 µM | 5.45 µM | 1.83 µM | > 100 µM | 1.96 µM | 6.43 µM | 1.67 µM | 3.15 µM | 2.76 µM | > 100 µM | 2.49 µM | 7.92 µM | 5.7 µM | > 100 µM |  |  |  |  |  | 
O=C(Cc1ccccc1)NN1C(=O)C(Cl)C1c1cc(Br)ccc1O (stereo not given) |  | > 100 µM |  | > 100 µM |  | > 100 µM |  | > 100 µM |  | > 100 µM |  | 94.3 µM |  | > 100 µM | > 100 µM |  |  |  |  | 
C=C1C(=O)O[C@H]2[C@H]1CC/C(COC(=O)C(=O)c1cn(Cc3ccccc3)c3ccccc13)=C\CC[C@@]1(C)O[C@@H]21 |  |  | 1.27 µM | 9.02 µM | 2.02 µM | 4.53 µM | 1.21 µM | 2.57 µM | 4.19 µM | > 100 µM | 10.5 µM | 25.6 µM | 1.99 µM | 4.1 µM | 4.26 µM | 2.96 µM | 11.3 µM | 1.91 µM | 2.41 µM | 7.77 µM
Cc1cn(C2CC(N(O)Cc3ccccc3)C(CO[Si](C)(C)C(C)(C)C)O2)c(=O)[nH]c1=O (stereo not given) |  | 98.1 µM and 31.4 µM |  | > 100 µM |  | 52.9 µM and 31.5 µM |  |  |  | 83.6 µM and 31.5 µM |  | 39.6 µM and 31 µM |  | 33.1 µM and 30.2 µM | 41.7 µM and 34.3 µM |  | > 100 µM and 32 µM |  |  | 33.1 µM and 31.9 µM
COc1cc2nc3cc([N+](=O)[O-])ccc3c(NCCCNCCO)c2cc1OC | 0.256 µM | 0.914 µM | 0.211 µM | 1.41 µM | 0.212 µM | 0.569 µM | 0.243 µM | 0.664 µM | 0.114 µM | 0.385 µM | 0.182 µM | 0.604 µM |  |  |  | 0.194 µM | 0.645 µM |  | 0.179 µM | 0.336 µM
Cc1cccc(N2CCN(C(=S)c3ccc4c(c3)OCO4)CC2)c1 | 3.88 µM | > 100 µM | 6.91 µM | > 100 µM |  |  | 1.88 µM | > 100 µM | 67.7 µM | > 100 µM | 0.409 µM | > 100 µM | 0.437 µM | 35.1 µM | > 100 µM | 2.34 µM | > 100 µM | 3.76 µM |  | 
CCOC(=O)C1=C(C)N(NC(=O)Nc2ccccc2)C(=O)C1=P(c1ccccc1)(c1ccccc1)c1ccccc1 |  | > 100 µM |  | 96.7 µM |  | > 100 µM |  | > 100 µM |  | > 100 µM |  | > 100 µM |  | > 100 µM | > 100 µM |  |  |  |  | 
COc1cc(C(C)O)c[n+](CCc2c[nH]c3ccccc23)c1 (stereo not given) |  | > 100 µM |  | > 100 µM |  | > 100 µM |  | > 100 µM |  | > 100 µM |  | > 100 µM |  | > 100 µM | > 100 µM |  |  |  |  | 
CC(=O)[O-].CCN(CC)c1ccc(C=NCCN=Cc2ccc(N(CC)CC)cc2[O-])c([O-])c1.[Mn+3] | > 100 µM | > 100 µM | 42 µM | > 100 µM | 19.9 µM | 40.1 µM | 20.3 µM | 37.6 µM | 37.3 µM | > 100 µM | 27.7 µM | 71.8 µM | 19 µM | 33.9 µM | 35.9 µM |  |  | 19.7 µM |  | 
C1=CC2SSSC2C1 (stereo not given) |  | > 100 µM |  | > 100 µM |  | > 100 µM |  | > 100 µM |  | > 100 µM |  | > 100 µM |  | > 100 µM | > 100 µM |  |  |  |  | 
Clc1nc(Cl)c(Cl)c(-c2ccccc2)n1 |  | 33.5 µM |  |  |  |  |  | 5.59 µM |  | 20.6 µM |  | 17.1 µM |  | 11.8 µM | 78 µM |  |  |  |  | 28.7 µM
C[C@@H]1CC(=O)C2CCCC1C2=O (stereo not given in full) |  | > 100 µM |  | > 100 µM |  | > 100 µM |  | > 100 µM |  | > 100 µM |  | > 100 µM |  | > 100 µM | > 100 µM |  |  |  |  | 
NCCCCN(CCCN)/[N+]([O-])=N\O |  | > 100 µM |  | > 100 µM |  | > 100 µM |  |  |  | > 100 µM |  | > 100 µM |  | > 100 µM | > 100 µM |  |  |  |  | 
CC(C)C(Nc1c2ccccc2nc2ccccc12)C(=O)O (stereo not given) |  | > 100 µM |  | > 100 µM |  | > 100 µM |  | > 100 µM |  | 85.3 µM |  | > 100 µM |  |  | > 100 µM |  |  |  |  | 
Nn1c(=O)n(Cc2ccccc2)n(-c2ccccc2)c1=O |  | > 100 µM |  | > 100 µM |  | > 100 µM |  | > 100 µM |  | > 100 µM |  | > 100 µM |  | > 100 µM | > 100 µM |  |  |  |  | 
O=C1CCN2C(=O)CCN12 |  | > 100 µM |  | > 100 µM |  | > 100 µM |  |  |  | > 100 µM |  | > 100 µM |  |  |  |  |  |  |  | 
Oc1cccnc1CN1CCCCC1 |  | > 100 µM |  |  |  | > 100 µM |  | > 100 µM |  | > 100 µM |  | > 100 µM |  | > 100 µM | > 100 µM |  | > 100 µM |  |  | > 100 µM
COC(C(O)CO)C(O)C(O)C(=O)NNc1ccccc1 (stereo not given) |  | > 100 µM |  | > 100 µM |  | > 100 µM |  | > 100 µM |  |  |  | > 100 µM |  | > 100 µM | > 100 µM |  | > 100 µM |  |  | > 100 µM
COc1cc(C=C2C(=O)NC(=O)NC2=O)cc(OC)c1OC |  | > 100 µM |  | > 100 µM |  | > 100 µM |  | > 100 µM |  | > 100 µM |  | > 100 µM |  | > 100 µM | > 100 µM |  |  |  |  | 
CC1(C)C(=O)N(CCCCCCN2C(=O)C(C)(C)c3ccccc32)c2ccccc21 |  | 97 µM |  | 47.5 µM |  | 43.5 µM |  | 43.5 µM |  | > 100 µM |  | > 100 µM |  | 33.5 µM | > 100 µM |  |  |  |  | 
CCOC(=O)CC1(C(=O)OCC)c2[nH]c3ccccc3c2CCN1Cc1ccccc1 (stereo not given) |  | 50.9 µM |  | > 100 µM |  | 29.8 µM |  | 32.9 µM |  | 55.2 µM |  | 32.8 µM |  | 34.6 µM | 28.9 µM |  |  |  |  | 
